Literature values as cited in patent US20120220783A1, “SALTS OF SUNITINIB” (RANBAXY LABORATORIES LIMITED, priority 2009, published 2012).

Conditions: crystalline form, statement of WO 2009/104021

SMILES: CCN(CC)CCNC(=O)c1c(C)[nH]c(/C=C2\C(=O)Nc3ccc(F)cc32)c1C.O=C(O)C[C@H](O)C(=O)O [Form II of sunitinib L-malate, butanedioic acid, hydroxy-, (2S)-, compound with N-[2-(diethylamino)ethyl]-5-[(Z)-(5-fluoro-1,2-dihydro-2-oxo-3H-indol-3-ylidine)methyl]-2,4-dimethyl-1H-pyrrole-3-carboxamide (1:1)]
- thermodynamic stability / form conversion (appears to readily convert to Form I): thermodynamically unstable
- hygroscopicity: hygroscopic
